Test results as given in patent EP0335292A2, “2,6-Methano-1,3-benzodiazocines, a process for their preparation and their use as medicaments” (HOECHST-ROUSSEL PHARMACEUTICALS INCORPORATED, priority 1988, dated 1989).
Counter-ions that a name gives are not always drawn.

tested on: mice; test: modified phenyl-p-quinone writhing assay in mice (analgesia); type: in vivo; settings: Mus musculus, sc; read-out: Analgesic Activity (Inhibition of Writhing ED₅₀mg/kg,s.c.)
Description: The 2,6-methano-1,3-benzodiazocines of this invention are useful as analgetics due to their ability to alleviate pain in mammals. The procedure employed to determine analgetic activity is a modification of the phenyl-p-quinone writhing assay in mice, a standard assay for analgesia [Proc. Soc. Exptl. Bio. Med., 95 729(1957)]. Pursuant to the modified procedure, phenyl-p-benzoquinone (Eastman, 12.5 mg) is dissolved in 5 ml of 95% ethanol and the solution is diluted to a total volume of 100 ml with distilled water. The solution is administered to the subject mice intraperitoneally at a dose of 10 ml per kg of body weight. A characteristic "writhe", an inward rotation of one or more feet with twisting and turning of the trunk, drawing in of the abdominal wall, lordosis and arching of the back, is produced.
A total of 28 male mice (Charles River, CD-1), weighing 18 to 30 grams, are employed for a time response. The subject animals receive food and water ad libitum. Test compounds are dissolved in distilled water, or suspended in distilled water containing one drop of a suitable surfactant, such as Tween-80.
Four groups of five animals (20 animals) are given the test compound subcutaneously or orally (p.o.) at 15, 30, 45, and 60 minutes prior to administration of the phenyl-p-quinone. A control group (2 animals per group) receive an equal volume of the vehicle. After the administration of the phenyl-p-quinone, the mice are placed separately in one liter beakers, and after five minutes, are observed for ten minutes. The number of writhes for each animal is recorded. The following formula is used to compute the percent inhibition: […]
The time period with the greatest percent of inhibition is considered the peak time. A dose range determination is generally reserved for those compounds which inhibit [formula] writhing by greater than 65-70% at the screening dose. A dose range determination is run in the same manner as the time response except 10 animals per group are tested at the peak time of test drug activity. Fifty animals, four test drug groups, and a vehicle control are employed. Animals are dosed and tested in a randomized manner.

Row | Structure (SMILES) | ED50 [mg/kg]
1 | CC(=O)Oc1ccc2c(c1)C1CCN(C)C(C1)N2C (centres unmarked) [1,2,3,4,5,6-Hexahydro-1,3-dimethyl-2,6-methano-1,3-benzodiazocin-8-ol acetate, fumarate] | 0.74
2 | CN1CCC2CC1N(C)c1ccc(O)cc12.O=C(O)/C=C/C(=O)O (centres unmarked) [1,2,3,4,5,6-Hexahydro-1,3-dimethyl-2,6-methano-1,3-benzodiazocin-8-ol fumarate] | 0.7
3 | COc1ccc2c(c1)C1CCN(C)C(C1)N2C (centres unmarked) [1,2,3,4,5,6-Hexahydro-8-methoxy-1,3-dimethyl-2,6-methano 1,3-benzodiazocine] | 10.2
4 | CN1CCC2CC1N(C)c1c(Br)cc(O)cc12 (centres unmarked) [10-Bromo-1,2,3,4,5,6-hexahydro-1,3-dimethyl-2,6-methano-1,3-benzodiazocin-8-ol, hemi-fumarate] | 1.9
5 | CC(C)=CCN1CCC2(C)c3cc(O)ccc3CC1C2C (centres unmarked) [pentazocine, reference compound] | 1.3
